Experimental data from patent US12312334B2, “Quinoxaline compounds and uses thereof” (BOARD OF REGENTS OF THE UNIVERSITY OF NEBRASKA, priority 2017, dated 2025).
Where two headings read alike, the source gives them in different places.

What was measured:
[1] = test system: TNFα induced NFκB transcription activity; assay: cell-based TNFα induced IKKβ mediated NFκB activation luciferase reporter assay; set-up: TNFα induced NFκB transcription activity % Inhibition: concentration or dose not given beside the values
Source text: Compound 13-197 has a structure:

SW620 = assay: growth inhibition assay, colon cancer cell line SW620; type: cell-based; conditions: Homo sapiens, SW-620
DLD1 = assay: growth inhibition assay, colon cancer cell line DLD1; type: cell-based; conditions: Homo sapiens, DLD-1
[2] = oral and intravenous dose pharmacokinetics in mice; type: in vivo, Balb/c mice; conditions: for MRT inf: read-out: MRT 0-∞
Procedure: (§1) A metabolic stability profile, as well as oral and intravenous dose pharmacokinetics in mice was characterized. The in-vitro metabolic stability of 39-100 was determined using human liver S9 fraction (XenoTech, LLC, USA). 7-hydroxycoumarin (glucuronidation and sulphation) and testosterone (CYP hydroxylation) were used as positive controls for in-vitro metabolic stability study. The oral and intravenous dose pharmacokinetic studies were performed in Balb/c mice. The oral dose of 39-100 was 10 mg/kg, and the intravenous dose was 1 mg/kg. Sample analysis was performed by liquid chromatography-tandem mass spectrometry (SCIEX QTRAP 4000 LC-MS/MS System). For metabolite identification, samples were acquired by MRM-information dependent acquisition-enhanced product ion (MRM-IDA-EPI) scans, enhanced mass spectrometry-IDA-EPI scans, neutral loss, and precursor ion scan methods. Metabolites of 39-100 were characterized by Analyst 1.6.2, LightSight 2.3.1, and ChemDraw Professional-15 software.

Suit2 = assay: growth inhibition assay, pancreatic cancer cell line Suit2; type: cell-based; conditions: SUIT-2
HCT116 cancer cells = assay: HCT116 colon tumor xenograft growth inhibition study; type: in vivo; conditions: HCT116 xenograft in athymic mice, 40 mg/kg for 2 weeks, preliminary results
Procedure: Colon tumor xenografts were established in immune deficient (athymic: 4-6 weeks old) mice. Briefly, exponentially growing (70-80% confluent) HCT116 cancer cells were trypsinized, counted using a hemocytometer and stained with trypan blue to ensure only healthy cells are counted. Cells in suspension were added to matrigel and 4×10^6 cells/100 μl of volume were injected into the flanks of mice. Post-injection, mice were monitored on a daily basis to determine tumor growth. The tumor onset and progression was examined through palpation. Tumor diameter was measured using digital calipers and the tumor volume (in mm^3) was calculated using the formula=(width)^2×length/2. Mice were randomly separated into two groups and were dosed with either vehicle or 40 mg/kg of 39-100 for 2 weeks.

HT29 = assay: growth inhibition assay, colon cancer cell line HT29; type: cell-based; conditions: Homo sapiens, HT-29
AsPC1 = assay: growth inhibition assay, pancreatic cancer cell line AsPC1; type: cell-based; conditions: Homo sapiens
S2013 = assay: growth inhibition assay, pancreatic cancer cell line S2013; type: cell-based
MiaPaCa2 = assay: growth inhibition assay, pancreatic cancer cell line MiaPaCa2; type: cell-based; conditions: Homo sapiens, MIA PaCa-2
[3] = in-vitro metabolic stability in human liver S9 fraction; type: in vitro ADME; conditions: for microsomal CLint / half-life: human liver S-9 fraction; for microsomal CLint: read-out: intrinsic clearance
Procedure: as §1

HCT116 = assay: growth inhibition assay, colon cancer cell line HCT116; type: cell-based; conditions: Homo sapiens, HCT-116
[4] = Balb/c, mouse, plasma, Oral: 10 mg/kg

Cc1cc(NC(=O)Nc2ccc3ncc(-c4cnn(C)c4)nc3c2)ccc1F [42-074]
TNFα induced NFκB transcription activity % Inhibition [1]: 10.4 ± 3.9%

Cn1cc(-c2cnc3ccc(NC(=O)Nc4ccc5sccc5c4)cc3n2)cn1 [42-077]
TNFα induced NFκB transcription activity % Inhibition [1]: inactive

Cn1cc(-c2cnc3ccc(NC(=O)Nc4ccc([N+](=O)[O-])cc4)cc3n2)cn1 [39-084]
TNFα induced NFκB transcription activity % Inhibition [1]: 36.4 ± 6.3%

Cn1cc(-c2cnc3ccc(NC(=O)Nc4ccc5c(c4)OCO5)cc3n2)cn1 [42-072]
TNFα induced NFκB transcription activity % Inhibition [1]: inactive

Cn1cc(-c2cnc3ccc(NC(=O)Cc4ccc(Br)cc4)cc3n2)cn1 [39-076]
TNFα induced NFκB transcription activity % Inhibition [1]: 36.1 ± 8.8%

Cn1cc(-c2cnc3ccc(NC(=O)Nc4ccc(F)c(OC(F)(F)F)c4)cc3n2)cn1 [42-096]
TNFα induced NFκB transcription activity % Inhibition [1]: 64.6 ± 3.3%

Cn1cc(-c2cnc3ccc(NC(=O)Nc4ccc(F)c(C(F)(F)F)c4)cc3n2)cn1 [42-062]
TNFα induced NFκB transcription activity % Inhibition [1]: 83.7 ± 0.3%

Cn1cc(-c2cnc3ccc(NC(=O)Nc4cccc(C(F)(F)F)c4)cc3n2)cn1 [42-071]
TNFα induced NFκB transcription activity % Inhibition [1]: 80.5 ± 2.5%

Cn1cc(-c2cnc3ccc(NC(=O)Nc4ccc(Br)cc4)cc3n2)cn1 [39-055]
TNFα induced NFκB transcription activity % Inhibition [1]: 71.0 ± 4.8%

COc1cc(NC(=O)Nc2ccc3ncc(-c4cnn(C)c4)nc3c2)ccc1F [42-078]
TNFα induced NFκB transcription activity % Inhibition [1]: 33.5 ± 3.7%

Cn1cc(-c2cnc3ccc(NC(=O)Nc4ccc5c(c4)OCCO5)cc3n2)cn1 [42-073]
TNFα induced NFκB transcription activity % Inhibition [1]: inactive

COc1cccc(NC(=O)Nc2ccc3ncc(-c4cnn(C)c4)nc3c2)c1 [42-076]
TNFα induced NFκB transcription activity % Inhibition [1]: 49.7 ± 2.6%

Cn1cc(-c2cnc3ccc(NC(=O)Nc4cccc(Br)c4)cc3n2)cn1 [39-086]
TNFα induced NFκB transcription activity % Inhibition [1]: 88.9 ± 1.8%

Cn1cc(-c2cnc3ccc(NC(=O)Nc4ccccc4)cc3n2)cn1 [39-071]
TNFα induced NFκB transcription activity % Inhibition [1]: 31.2 ± 7.6%

Cn1cc(-c2cnc3ccc(NC(=O)Nc4ccc(F)cc4)cc3n2)cn1 [39-066]
TNFα induced NFκB transcription activity % Inhibition [1]: 42.9 ± 9.8%

Cn1cc(-c2cnc3cc(NC(=O)Nc4ccc(Br)cc4)ccc3n2)cn1 [39-061]
TNFα induced NFκB transcription activity % Inhibition [1]: 40.7 ± 2.9%

Cc1ccc(NC(=O)Nc2ccc3ncc(-c4cnn(C)c4)nc3c2)cc1 [39-085]
TNFα induced NFκB transcription activity % Inhibition [1]: 53.0 ± 2.9%

Cn1cc(-c2cnc3ccc(NC(=O)Nc4ccc5c(c4)CCO5)cc3n2)cn1 [42-097]
TNFα induced NFκB transcription activity % Inhibition [1]: inactive

Cc1cccc(NC(=O)Nc2ccc3ncc(-c4cnn(C)c4)nc3c2)c1 [42-066]
TNFα induced NFκB transcription activity % Inhibition [1]: Inactive

Cn1cc(-c2cnc3ccc(NC(=O)Nc4cccc(Cl)c4)cc3n2)cn1 [42-064]
TNFα induced NFκB transcription activity % Inhibition [1]: 96.3 ± 1.5%

O=C(Nc1ccc(Br)cc1)Nc1ccc2ncc(-c3cn[nH]c3)nc2c1 [39-09D]
TNFα induced NFκB transcription activity % Inhibition [1]: 48.4 ± 2.8%

Cn1cc(-c2cnc3ccc(NC(=O)Nc4ccccc4Br)cc3n2)cn1 [39-102]
TNFα induced NFκB transcription activity % Inhibition [1]: 62.4 ± 1.2%

Cn1ccc(-c2cnc3cc(NC(=O)Nc4ccc(Br)cc4)ccc3n2)n1 [39-072]
TNFα induced NFκB transcription activity % Inhibition [1]: 46.8 ± 4.4%

Cc1nn(C)cc1-c1cnc2ccc(NC(=O)Nc3ccc(Br)cc3)cc2n1 [39-077]
TNFα induced NFκB transcription activity % Inhibition [1]: 37.7 ± 5.1%

Cn1cc(-c2cnc3ccc(NC(=O)Nc4ccc(F)c(Br)c4)cc3n2)cn1 [39-100]
GI50 (SW620): 8.4 ± 2.3 µM
GI50 (DLD1): 8.4 ± 2.3 µM
MRT inf ([2]; Balb/c, mouse, plasma, IV: 1 mg/kg): 1.4 h
half-life ([2]; Balb/c, mouse, plasma, IV: 1 mg/kg, read-out: t0.5 (elimination half-life) (converted)): 3.9 h
AUC(0-t) [2, 4]: 12400 ng·h/mL
CL/F [2, 4]: 13.3 mL/min/kg
Cmax [2, 4]: 2330 ng/mL
Tmax [2, 4]: 2 h
bioavailability ([2]; Balb/c, mouse, plasma, Oral: 10 mg/kg vs IV: 1 mg/kg): 208%
MRT inf [2, 4]: 3.9 h
AUC(0-inf) ([2]; Balb/c, mouse, plasma, intravenous dose 1 mg/kg, read-out: area under the curve (AUC0-∞)): 598 ng·h/mL
MRT ([2]; Balb/c, mouse, plasma, intravenous dose 1 mg/kg, read-out: mean residence time (MRT)): 1.4 h
AUC(0-inf) ([2]; Balb/c, mouse, plasma, oral administration 10 mg/kg, read-out: AUC0-∞): 12400 ng·h/mL
MRT ([2]; Balb/c, mouse, plasma, oral administration 10 mg/kg, read-out: MRT): 3.9 h
C0-iv ([2]; IV: 1 mg/kg): 709.9 ng/mL
CL/F (clearance) ([2]; IV: 1 mg/kg): 27.8 mL/min/kg
λZ ([2]; IV: 1 mg/kg): 0.177 h⁻¹
t0.5 ([2]; Oral: 10 mg/kg): 2.35 h
λZ ([2]; Oral: 10 mg/kg): 0.295 h⁻¹
GI50 (Suit2): 4.5 ± 0.4 µM
TNFα induced NFκB transcription activity % Inhibition [1]: 83.8 ± 1.6%
potency relative to 13-197 ([1]; all the assays tested (FIG. 1 and FIG. 2)): more potent than 13-197
colon tumor growth (HCT116 cancer cells): reduced colon tumorgrowth
GI50 (HT29): 3.1 ± 0.2 µM
GI50 (AsPC1): 7.2 ± 2.6 µM
GI50 (S2013): 4.1 ± 0.5 µM
GI50 (MiaPaCa2): 3.2 ± 0.3 µM
parent compound present ([3]; human liver S9 fraction, 60-minute incubation): More than 85%
microsomal CLint ([3]; human liver S9 fraction): 1.59 µL/min/mg
half-life [3]: 7.273 h
metabolites detected ([3]; metabolite identification by LC-MS/MS, matrix not stated): In very small fraction glucuronidation, sulfonation, and demethylation
GI50 (HCT116): 3.8 ± 1.2 µM

Cn1cc(-c2cnc3ccc(NC(=O)Nc4ccc(F)c(Cl)c4)cc3n2)cn1 [42-065]
TNFα induced NFκB transcription activity % Inhibition [1]: 85.3 ± 2.8%

Cn1ccc(-c2cnc3ccc(NC(=O)Nc4ccc(Br)cc4)cc3n2)n1 [39-062]
TNFα induced NFκB transcription activity % Inhibition [1]: 33.0 ± 5.7%

Cn1cc(-c2cnc3ccc(NC(=O)Nc4cccc(OC(F)(F)F)c4)cc3n2)cn1 [42-81B]
TNFα induced NFκB transcription activity % Inhibition [1]: 60.9 ± 2.9%

O=C(Nc1ccc(Br)cc1)Nc1ccc2nc(-c3ccco3)c(-c3ccco3)nc2c1 [13-197, reference compound]
GI50 (SW620): 9.2 ± 2.5 µM
GI50 (DLD1): 10.9 ± 2.1 µM
GI50 (Suit2): 10.7 ± 0.5 µM
TNFα induced NFκB transcription activity % Inhibition [1]: 32.9 ± 3.4%
GI50 (HT29): 6.7 ± 1 µM
GI50 (AsPC1): 12 ± 4 µM
GI50 (S2013): 9.1 ± 1.1 µM
GI50 (MiaPaCa2): 10 ± 2.2 µM
microsomal CLint ([3]; human liver S9 fraction): 12.2 µL/min/mg
half-life [3]: 0.95 h
GI50 (HCT116): 8.8 ± 2.2 µM

Cn1cc(-c2cnc3ccc(NC(=O)Nc4ccc5c(c4)CCC5)cc3n2)cn1 [42-091]
TNFα induced NFκB transcription activity % Inhibition [1]: inactive
